Reference: patent publication US9937198B2, “Multi-functional composition and preparation method and application thereof” (Suzhou Sciscape Bio-Pharmaceutical Technology Co., Ltd., priority 2013, dated 2018)
Where “and” joins values, the source holds several entries; their conditions need not be identical. Identical values can stand only once.

Columns and labels:
Male ICR mice = test: In vivo absorption: blood glucose in fasted normal mice after intragastric administration; details: for Blood glucose level after administration: 13.3 mL/kg intragastric; for Blood glucose level before administration: baseline, mice fasted 12 h; for blood glucose level compared to the blank control group: before or after administration, normal mice
Protocol: Male ICR mice, 8 weeks old, 20±2 g in body weight, were purchased from Beijing HFK Bioscience Co., Ltd.
The composition used in the present experiment example was the solution of Composition 1. In particular, 15 g of trehalose and 3 mg of validamycin were picked and then dissolved in 100 mL of sterile water for medical use to provide the solution of Composition 1 which was kept for future use.
After normally fed for 3 days, the mice fasted for 12 h with water sufficiently supplied. Then, they were randomly divided into 4 groups depending on the blood glucose, i.e., a blank control group, an administration group, and negative control group 1 and negative control group 2. The mice in the administration group were intragastrically given the solution of Composition 1 prepared in this experimental example at a dose of 13.3 mL/kg body weight while the mice in the blank control group were intragastrically given sterile water for medical use at a dose of 13.3 mL/kg body weight. In addition, the mice in negative control group 1 and 2 were respectively intragastrically given the solution of trehalose (0.15 g/mL) and the solution of validamycin (0.3 mg/mL) at the same dose of 13.3 mL/kg body weight. The blood glucose levels before administration and 10 min, 25 min, 40 min and 60 min post administration were measured respectively, and the results were shown in Table 2.

[1] = tested on: patients with type-II diabetes; test: Short-term experiment for treatment in human diabetics; format: in vivo; details: for effect on blood glucose level in patients with type-II diabetes, short-term / Blood glucose level after administration: 200 mL oral; for Blood glucose level after administration / Blood glucose level before administration: individual type-II diabetes patients; for Blood glucose level before administration: fasting baseline
Protocol: Six patients with type-II diabetes were fasted overnight and then measured for fasting blood glucose level. Then they were orally administered with 200 mL of the solution of Composition 1, or 200 mL of solution of trehalose (0.15 g/mL), or 200 mL of the solution of validamycin (0.3 mg/mL), or 200 mL of distilled water, as stated in Table 3.3. The blood glucose level in every patient was tested before administration and 30 min, 60 min and 120 min post administration.

ovariectomized rats = test: Osteoporosis amelioration in ovariectomized rats; format: in vivo; details: femur, 13.3 mL/kg once a day for 30 days
Description: Female SD rats, 250 g to 280 g in body weight, were purchased from Shanghai Sippr-BK Lab Animal Co., Ltd.
(§1) The solutions of Compositions 1 to 7 prepared in this example were used.
After receiving ovariectomy, rats were fed normally for one week. By body weight, the rats were randomly divided into 11 groups, i.e., a blank control group, administration groups 1 to 7 and negative control groups 1 to 3. The rats in administration groups 1 to 7 were intragastrically administered with the solutions of Compositions 1 to 7 respectively at a dose of 13.3 mL/kg body weight while the rats in the blank control group were intragastrically given sterile water for medical use at a dose of 13.3 mL/kg body weight. The rats in negative control groups 1 to 3 were intragastrically given the solution of trehalose (0.15 g/mL), the solution of validamycin (0.3 mg/mL) and the solution of algal polysaccharides (0.15 g/mL) at a dose of 13.3 mL/kg body weight respectively. Administration was conducted once a day and lasted for 30 days. Normal rats were arranged in a normal group and fed normally all the time. Twenty to 30 min post last administration, all rats were killed by cervical vertebrae dislocation, and their femurs were taken out. Then, the bone density and mineral content in the femur were determined.

normal mice [2] = test: Defecation quantity and body weight changes in normal mice (sliming); format: in vivo
Protocol: Male ICR mice, 8 weeks old and 20±2 g in body weight, were purchased from Beijing HFK Bioscience Co., Ltd.
as §1
After the mice were fed normally for 3 days, they were given no food but water for 4 h. By body weight, they were randomly divided into 11 groups, i.e., a blank control group, administration groups 1 to 7 and negative control groups 1 to 3. The mice in administration groups 1 to 7 were intragastrically administered with the solutions of Compositions 1 to 7 respectively at a dose of 13.3 mL/kg body weight. On the other hand, the mice in the blank control group were intragastrically given sterile water for medical use at a dose of 13.3 mL/kg body weight. Further, the mice in negative control groups 1 to 3 were intragastrically given the solution of trehalose (0.15 g/mL), the solution of validamycin (0.3 mg/mL) and the solution of algal polysaccharides (0.15 g/mL) respectively at a dose of 13.3 mL/kg body weight. At 20 to 30 min post administration, mice were allowed to eat freely and the defecation quantity in the mice from each group before and after administration (average feces quantity of the mice in each group), the percentages of defecation quantities before and after administration based on the total defecation quantities throughout the experiment and the body weight were recorded.

normal mice [3] = test: Loaded swimming in normal mice; format: in vivo; details: 2 g weight on tail, 20 min after 13.3 mL/kg intragastric
Description: Female ICR mice, 8 weeks old and 20±2 g in body weight, were purchased from Beijing HFK Bioscience Co., Ltd.
The solutions of Composition 1 to 7 prepared in this example were used.
After the mice were fed normally for 3 days, they were randomly divided into 11 groups by body weight, i.e., a blank control group, administration groups 1 to 7 and negative control groups 1 to 3. The mice in administration groups 1 to 7 were intragastrically administered with the solution of Compositions 1 to 7 respectively a dose of 13.3 mL/kg body weight while the mice in the blank control group were intragastrically given sterile water for medical use at a dose of 13.3 mL/kg body weight. The mice in negative control groups 1 to 3 were intragastrically given the solution of trehalose (0.15 g/mL), the solution of validamycin (0.3 mg/mL) and the solution of algal polysaccharides (0.15 g/mL) respectively at a dose of 13.3 mL/kg body weight. Twenty minutes after the administration, a weight of 2 g was fixed to the tail of each mouse and the mice were put into a pool to swim with load. The bath temperature was 25±2° C., and the depth was more than 30 cm. The survival time in the loaded swimming was recorded (when all parts of a mouse were under water for 10 s, the mouse was considered to be unable to rise to the surface).

[4] = after administration, 13.3 mL/kg intragastric

| SMILES | Blood glucose level after administration (Male ICR mice; 10 min) [mmol/L] | Blood glucose level after administration (Male ICR mice; 25 min) [mmol/L] | Blood glucose level after administration (Male ICR mice; 40 min) [mmol/L] | Blood glucose level after administration (Male ICR mice; 60 min) [mmol/L] | Blood glucose level before administration (Male ICR mice) [mmol/L] | blood glucose level compared to the blank control group (Male ICR mice) | effect on blood glucose level in patients with type-II diabetes, short-term [1] | Bone density (ovariectomized rats) [g/cm^2] | Mineral content (ovariectomized rats) [g/cm] | Body weight (normal mice [2]; [4]) [g] | Percentage of defecation quantity in each stage based the total defecation quantity (normal mice [2]; [4]) [%] | defecation quantity (normal mice [2]; [4]) [g] | Body weight (normal mice [2]; before administration) [g] | Percentage of defecation quantity in each stage based the total defecation quantity (normal mice [2]; before administration) [%] | defecation quantity (normal mice [2]; before administration) [g] | Survival time (normal mice [3]) [min] | other results |
| --- | --- | --- | --- | --- | --- | --- | --- | --- | --- | --- | --- | --- | --- | --- | --- | --- | --- |
| OC[C@H]1O[C@H](O[C@H]2O[C@H](CO)[C@@H](O)[C@H](O)[C@H]2O)[C@H](O)[C@@H](O)[C@@H]1O [trehalose] | 6.4 ± 0.40 | 9.5 ± 1.00 | 11.0 ± 0.30 | 9.5 ± 1.12 | 4.9 ± 0.53 | increased significantly | significantly raised the blood glucose level | 0.1037 ± 0.0211 | 0.1245 ± 0.0374 | 19.10 | 37.84 | 0.70 ± 0.01 | 19.80 | 62.16 | 1.15 ± 0.03 | 13.45 ± 2.54 | Blood glucose level after administration ([1]; 30 min): 25.5 mmol/L; Blood glucose level after administration ([1]; 60 min): 20.1 mmol/L; Blood glucose level after administration ([1]; 120 min): 17.3 mmol/L; Blood glucose level before administration [1]: 15.3 mmol/L |
| OCC1=C[C@H](N[C@H]2C[C@H](CO)[C@@H](O[C@@H]3O[C@H](CO)[C@@H](O)[C@H](O)[C@H]3O)[C@H](O)[C@H]2O)[C@H](O)[C@@H](O)[C@@H]1O [validamycin] | 5.3 ± 0.45 | 5.7 ± 0.56 | 5.2 ± 0.23 | 5.3 ± 0.20 | 5.2 ± 0.44 | no significant difference | had no influence on blood glucose level | 0.1063 ± 0.0222 | 0.1212 ± 0.0311 | 19.45 | 35.26 | 0.67 ± 0.05 | 20.12 | 64.74 | 1.23 ± 0.04 | 12.54 ± 1.08 | Blood glucose level after administration ([1]; 30 min, listed as Solution of validamycin): 9.5 mmol/L and 15.7 mmol/L; Blood glucose level after administration ([1]; 60 min, listed as Solution of validamycin): 9.6 mmol/L and 16.1 mmol/L; Blood glucose level after administration ([1]; 120 min, listed as Solution of validamycin): 9.1 mmol/L and 14.8 mmol/L; Blood glucose level before administration ([1]; listed as Solution of validamycin): 9.3 mmol/L and 15.5 mmol/L |
